US20260374766A1, “METHODS FOR TREATING CANCER” (Antares Therapeutics, Inc., priority 2022, published 2026)

How the values were obtained:
H1299 p53 R273H = assay: Cell Proliferation Assay (CellTiter-Glo, CTG), H1299 p53 R273H (NClH1299-inducible p53 R273H); type: cell-based; settings: Homo sapiens, NCI-H1299, 120 h, NClH1299-inducible p53 R273H cells, 5 days, CellTiter-Glo
Procedure, shortened: (§1)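 Cells seeded at 250-500 per well and exposed to compound for 5 days. Viability read by CellTiter-Glo luminescence after 10 min at room temperature; IC50 calculated. H1299 lines carry Tet-One inducible p53 mutant constructs introduced by lentiviral transduction.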

p53 Y220C = p53 Y220C (Homo sapiens, UniProt P04637, Y220C); assay: Luciferase Reporter Assay (Luc), p53 response element, NClH1299 cells with inducible p53 Y220C; type: cell-based; settings: luciferase reporter, NClH1299 inducible p53 Y220C, 6 hour; for AC50: read-out: Luc P53 Y220C AC50
Procedure, shortened: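 Cells were seeded at 5,000 per well and induced with 0.5 ug/mL doxycycline for 24 hours, then exposed to compound for 6 hours. One-Glo reagent was added, plates shaken 5 minutes at room temperature, and luminescence read immediately.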

[1] = biological target: T1, p53 Y220C mutant protein (amino acid residues 94-293) (Homo sapiens, UniProt P04637, Y220C); assay: Surface Plasmon Resonance (SPR) assay, Kd_kinetic; type: binding; settings: SPR; p53 Y220C; read-out: SPR P53 Y220C KD kinetic
T1 construct: p53 Y220C mutant protein (amino acid residues 94-293)
T1 sequence (P04637 94-293, stated change not applied): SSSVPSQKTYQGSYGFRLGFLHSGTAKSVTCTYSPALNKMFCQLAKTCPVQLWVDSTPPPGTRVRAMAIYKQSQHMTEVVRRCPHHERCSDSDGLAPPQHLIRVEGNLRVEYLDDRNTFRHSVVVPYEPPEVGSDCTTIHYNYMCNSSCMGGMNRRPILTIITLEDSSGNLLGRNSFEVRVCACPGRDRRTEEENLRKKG
Procedure, shortened: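 Surface plasmon resonance is run at 16 or 20 °C in 50 mM Tris pH 7.5 containing 100 mM NaCl, 1 mM DTT, 0.01% Brij35, 0.05% Tween-20 and 1% DMSO. Association and dissociation data are fitted to a 1:1 model.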

NUGC3 p53 Y220C = assay: Cell Proliferation Assay (CellTiter-Glo, CTG), NUGC3 p53 Y220C; type: cell-based; settings: Homo sapiens, NUGC-3, 120 h, NUGC3 cells, 5 days, CellTiter-Glo
Procedure, shortened: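 Tet-One inducible p53 Y220C or R273H constructs were stably introduced into NCI-H1299 by lentiviral transduction; NUGC3 was used as is. Cells (250-500 per well) were exposed to compound for 5 days, then CellTiter-Glo was added for 10 min at room temperature and IC50 was calculated from luminescence.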

H1299 p53 Y220C = assay: Cell Proliferation Assay (CellTiter-Glo, CTG), H1299 p53 Y220C (NClH1299-inducible p53 Y220C); type: cell-based; settings: Homo sapiens, NCI-H1299, 120 h, NClH1299-inducible p53 Y220C cells, 5 days, CellTiter-Glo
Procedure, shortened: as §1

SMILES | IC50 (H1299 p53 R273H) [nM] | AC50 (p53 Y220C) [nM] | Emax (p53 Y220C) [%] | Kd [1] [nM] | IC50 (H1299 p53 Y220C) [nM] | IC50 (NUGC3 p53 Y220C) [nM]
CN1CC[C@@H](Nc2cccn3c(SC(F)(F)F)c(C#CCNc4ccc(P(C)(C)=O)cc4)nc23)[C@@H](F)C1 [Example 315] | ≥ 10000 | 750 to 1500 | 80 to 90 | < 10 | < 750 | < 750
CCNC(=O)c1ccc(NCC#Cc2nn3c(N[C@@H]4CCN(C)C[C@@H]4F)cccc3c2SC(F)(F)F)c(OC)c1 [Example 316] | ≥ 10000 | < 750 | > 90 | < 10 | < 750 | < 750
CNC(=O)c1ccc(OC)c(NCC#Cc2nc3c(N[C@@H]4CCN(C)C[C@@H]4F)cccn3c2SC(F)(F)F)c1F [Example 320] | ≥ 10000 | > 3000 | 70 to 80 | 10 to 100 | > 3000 | > 3000
CNC(=O)c1ccc(NCC#Cc2nc3c(N[C@@H]4CN(C)C[C@@H]4F)nccn3c2SC(F)(F)F)c(OC)c1 [Example 323] | ≥ 10000 | 750 to 1500 | > 90 | < 10 | 750 to 1500 | 750 to 1500
CNC(=O)c1ccc(NCC#Cc2cc3c(N[C@@H]4CN(C)C[C@@H]4F)nccn3c2SC(F)(F)F)c(OC)c1 [Example 325] | ≥ 10000 | < 750 | > 90 | < 10 | < 750 | < 750
CNC(=O)c1ccc(OC)c(NCC#Cc2cc3c(N[C@@H]4CCNC[C@@H]4F)nccn3c2SC(F)F)c1 [Example 326] | ≥ 10000 | < 750 | > 90 | < 10 | < 750 | < 750
CNC(=O)c1cnc(OC)c(NCC#Cc2cc3c(N[C@@H]4CN(C)C[C@@H]4F)nccn3c2SC(F)F)c1 [Example 328] | ≥ 10000 | < 750 | > 90 | < 10 | < 750 | < 750
CNC(=O)c1cnc(OC)c(NCC#Cc2cc3c(N[C@@H]4CN(C)C[C@@H]4F)nccn3c2SC(F)(F)F)c1 [Example 330] | ≥ 10000 | < 750 | > 90 | < 10 | < 750 | < 750
CNC(=O)c1ccc(OC)c(NCC#Cc2cc3c(N[C@@H]4CN(C)C[C@@H]4F)nccn3c2SC(F)F)c1 [Example 331] | ≥ 10000 | < 750 | > 90 | < 10 | < 750 | < 750
CNC(=O)c1ccc(OC)c(NCC#Cc2cc3c(N[C@@H]4CN(C)C[C@@H]4F)nccn3c2SC(F)F)n1 [Example 332] | ≥ 10000 | 1500 to 3000 | 80 to 90 | < 10 | 1500 to 3000 | > 3000
CNC(=O)c1ccc(OC)c(NCC#Cc2cc3c(N[C@@H]4CCN(C)C[C@@H]4F)nccn3c2SC(F)F)n1 [Example 333] | ≥ 10000 | < 750 | > 90 | < 10 | < 750 | < 750
CNS(=O)(=O)c1ccc(OC)c(NCC#Cc2cc3c(N[C@@H]4CCN(C)C[C@@H]4F)nccn3c2SC(F)F)c1 [Example 334] | ≥ 10000 | > 3000 | 80 to 90 | 10 to 100 | 1500 to 3000 | > 3000
CNS(=O)(=O)c1ccc(OC)c(NCC#Cc2cc3c(N[C@@H]4CCN(C)C[C@@H]4F)nccn3c2SC(F)(F)F)c1 [Example 335] | ≥ 10000 | 1500 to 3000 | 80 to 90 | < 10 | 1500 to 3000 | 1500 to 3000

Continued, in another order:

IC50 (H1299 p53 R273H) [nM] | AC50 (p53 Y220C) [nM] | Emax (p53 Y220C) [%] | Kd [1] [nM] | IC50 (H1299 p53 Y220C) [nM] | SMILES | IC50 (NUGC3 p53 Y220C) [nM]
≥ 10000 | 750 to 1500 | > 90 | < 10 | 750 to 1500 | CNC(=O)c1ccc(NCC#Cc2cc3c(N[C@@H]4CCN(C)C[C@@H]4F)nccn3c2SC(F)(F)F)c(C#N)c1 [Example 301] | 750 to 1500
≥ 10000 | < 750 | > 90 | < 10 | < 750 | CNC(=O)c1ccc(NCC#Cc2cc3c(N[C@@H]4CCN(C)C[C@@H]4F)nccn3c2SC(F)(F)F)c(F)c1 [Example 302] | < 750
≥ 10000 | < 750 | 80 to 90 | < 10 | < 750 | CNC(=O)c1cnc(OC)c(NCC#Cc2nc3c(N[C@@H]4CNC[C@@H]4F)cccn3c2SC(F)(F)F)c1 [Example 305] | < 750
≥ 10000 | < 750 | > 90 | < 10 | < 750 | CNC(=O)c1ccc(NCC#Cc2nc3c(N[C@@H]4CCN(C)C[C@@H]4F)cccn3c2SC(F)(F)F)c(Cl)c1 [Example 310] | < 750
5000 to 8000 | < 750 | > 90 | < 10 | < 750 | CNC(=O)c1ccc(NCC#Cc2nc3c(N[C@@H]4CCN(C)C[C@@H]4F)cccn3c2SC(F)(F)F)c(F)c1 [Example 311] | < 750
≥ 10000 | 750 to 1500 | 80 to 90 | < 10 | 750 to 1500 | CNC(=O)c1cnc(OC)c(NCC#Cc2cc3c(N[C@@H]4CNC[C@@H]4F)nccn3c2SC(F)(F)F)c1 [Example 313] | 750 to 1500
≥ 10000 | < 750 | > 90 | < 10 | < 750 | CN1CC[C@@H](Nc2cccn3c(SC(F)(F)F)c(C#CCNc4ccc(C(N)=O)cc4)nc23)[C@@H](F)C1 [Example 314] | < 750
